The source made the active and inactive calls. The calls are words filed in the database; no cut-off is given here.
Legend:
Rattus norvegicus [1] = assay: Analgetic activity in ip dosed albino rat measured 15 mins interval by tail-flick method; format: functional; conditions: 0.25 h
[2] = Toxicity in ip dosed albino rat; format: organism-based; conditions: in vivo
Rattus norvegicus [3] = assay: Analgetic activity in albino rat at 100 mg/kg, ip measured 15 mins interval by tail-flick method; format: functional, organism-based; set-up: dose 100 mg/kg

Row | Compound | ED50 (Rattus norvegicus [1]) | LD50 [2] | Activity (Rattus norvegicus [3])
1 | CCC(=O)OC1(c2ccccc2)CCN(C)CC1C (racemic) [ALPHAPRODINE] | 1.4 mg/kg | 22 mg/kg | 
2 | CCC(=O)O[C@@]1(c2ccccc2)C[C@H]2CC[C@H]1CN2C |  |  | inactive
3 | CCC(=O)O[C@@]1(c2ccccc2)C[C@H]2CC[C@H]1N(C)C2 (relative stereo) | 3.1 mg/kg | 12.3 mg/kg | inactive
4 | CCC(=O)O[C@@]1(c2ccccc2)C[C@H]2CC[C@H]1N(Cc1ccccc1)C2 (relative stereo) |  |  | inactive
5 | CCC(=O)O[C@]1(c2ccccc2)C[C@H]2CC[C@H]1N(C)C2 (relative stereo) |  |  | inactive
